Experimental data from PubChem BioAssay (NCI).
Several values for one entry are separate records, joined by “and”; a condition that tells them apart may be missing. Equal entries are not always repeated.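 All cell lines were grown in 96-well plates and treated with compound for 48 hours. Abbreviation: GI50, concentration required for 50% inhibition of growth. The concentration for full growth arrest is given as TGI.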

What was measured:
Assay in all cases: NCI tumour cell line growth inhibition, 48 h
[1] = test system: DMS 273 small cell lung
[2] = test system: RXF-631 renal
[3] = test system: DLD-1 colon
[4] = test system: SNB-78 CNS
[5] = test system: HOP-18 NSCLC
[6] = test system: M19-MEL melanoma
[7] = test system: DMS 114 small cell lung
[8] = test system: LXFL 529 NSCLC
[9] = test system: SN12K1 renal
[10] = test system: P388/ADR leukemia
[11] = test system: XF 498 CNS
[12] = test system: P388 leukemia

Row | SMILES | GI50 [1] [µM] | TGI [1] [µM] | GI50 [2] [µM] | TGI [2] [µM] | GI50 [3] | TGI [3] | GI50 [4] | TGI [4] | GI50 [5] [µM] | TGI [5] [µM] | GI50 [6] | TGI [6] | GI50 [7] | TGI [7] | GI50 [8] | TGI [8] | TGI [9] [µM] | TGI [10] [µM] | TGI [11] [µM] | TGI [12] [µM]
1 | [Cl][Sn]([c]1ccccc1)([c]1ccccc1)[c]1ccccc1 | 0.0283 | 0.0761 | 0.0472 | 0.149 | 0.0378 µM and < 0.01 µM | 0.14 µM and 0.0282 µM | 0.0847 µM and 0.0219 µM | 0.439 µM and 0.0851 µM | 0.0293 | 0.113 | 0.0306 µM and 0.0181 µM | 0.0969 µM and 0.043 µM | 0.0237 µM and 0.0186 µM | 0.062 µM and 0.102 µM | 0.0353 µM and 0.0227 µM | 0.131 µM and 0.0798 µM | – | – | – | –
2 | COc1cc2ccc(=O)oc2cc1O | – | 99.6 | – | – | – | 552 µM | – | > 625 µM | – | 521 | – | 328 µM | – | 335 µM | – | – | 236 | 103 | 337 | 233
3 | CN(C)C(=O)OC1C(=O)N(C)c2ccc(Cl)cc2C2(c3ccccc3)N1C2(Cl)Cl (stereo unspecified) | – | > 100 | – | – | – | > 100 µM | – | – | – | – | – | > 100 µM | – | – | – | > 100 µM | – | – | – | –
4 | COc1c(O)c(C=O)c2c(O)c(-c3c(C)cc4c(C(C)C)c(OC)c(O)c(C=O)c4c3O)c(C)cc2c1C(C)C | – | 14.9 | – | – | – | 15.8 µM | – | 52.3 µM | – | – | – | 12.4 µM | – | 6.93 µM | – | 12 µM | – | – | – | –
5 | C/C=C/c1cc(=O)c([C@@H]2OC(=O)c3cc(OC)cc(OC)c32)co1 | – | – | – | – | – | – | – | – | – | – | – | > 100 µM | – | 56.6 µM | – | 91.6 µM | – | – | – | –
6 | NC(=O)c1cccc([N+](=O)[O-])c1 | – | > 100 | – | – | – | > 100 µM | – | > 100 µM | – | – | – | > 100 µM | – | > 100 µM | – | > 100 µM | – | – | > 100 | –
7 | CC(=O)Oc1cc2c(cc1OC(C)=O)OCC(c1ccc(C)cc1)C2 (stereo unspecified) | – | 48.5 | – | – | – | 45.9 µM | – | 55.5 µM | – | 62.1 | – | 23.5 µM | – | 18.7 µM | – | – | 34 | 11.4 | 32.2 | 20.8
